The test system of experiment [1] is Staphylococcus aureus S13E. The format is cell-based. The protocol: (§1) The formula I compounds have in vitro and in vivo activity against Gram-positive pathogenic bacteria. The MIC's were determined using a standard agar-dilution assays.
The test system of experiment [2] is Streptococcus pneumoniae Park 1. The experiment is classed as cell-based. The protocol: as §1
Experiment [3] relates to Streptococcus pyogenes. Nature of the experiment: In vivo activity, experimentally infected mice (ED50). To be noted: Streptococcus pyogenes infection; doses administered subcutaneously to mice 1 and 4 hours postinfection.
Experiment [4] deals with Enterococcus faecalis 2041. Nature of the experiment: MIC, standard agar-dilution assay. The experiment is classed as cell-based. The protocol:
as §1
^c Formerly Streptococcus faecalis 2041

In experiment [5] the test system is vancomycin-resistant (Vanco^r) E. faecium and E. faecalis. Nature of the experiment: Susceptibility of vancomycin-resistant enterococci, agar-dilution MIC. To be noted: for Geometric Mean MIC, Vanco^r Strains: n = 25 strains, end points read after 24-hour incubation. The experiment is classed as cell-based. The procedure:
(§2) End points were read after 24-hour incubation. The ratio was calculated by dividing the mean MIC of the compound against the vancomycin-resistant strains by the mean MIC of the compound against the vancomycin-susceptible strains.

In experiment [6] the test system is Staphylococcus aureus. Nature of the experiment: In vivo activity, experimentally infected mice (ED50). The following applies: Staphylococcus aureus infection; doses administered subcutaneously to mice 1 and 4 hours postinfection.
Experiment [7] deals with Enterococcus faecium X66. Nature of the experiment: MIC, standard agar-dilution assay. The experiment is classed as cell-based. The procedure: as §1
^b Formerly Streptococcus faecium X66

Experiment [8] deals with vancomycin-susceptible (Vanco^s) E. faecium and E. faecalis. Nature of the experiment: Susceptibility of vancomycin-susceptible enterococci, agar-dilution MIC. The experiment is classed as cell-based. The following applies: n = 34 strains; end points read after 24-hour incubation. The protocol: as §2
The test system of experiment [9] is Streptococcus pneumoniae. Description: In vivo activity, experimentally infected mice (ED50). The following applies: Streptococcus pneumoniae infection; doses administered subcutaneously to mice 1 and 4 hours postinfection.
Experiment [10] relates to Staphylococcus epidermidis 222. Nature of the experiment: MIC, standard agar-dilution assay. The format is cell-based. The procedure:
as §1

Experiment [11] relates to Streptococcus pyogenes C203. Description: MIC, standard agar-dilution assay. The format is cell-based. The procedure: as §1
The test system of experiment [12] is Escherichia coli TEM. Description: MIC, standard agar-dilution assay. The format is cell-based. The protocol: as §1
Experiment [13] deals with Haemophilus influenzae C.L. Nature of the experiment: MIC, standard agar-dilution assay. The experiment is classed as cell-based. The procedure: as §1
The test system of experiment [14] is Klebsiella pneumoniae KAE. Nature of the experiment: MIC, standard agar-dilution assay. The format is cell-based. The protocol: as §1
The test system of experiment [15] is Staphylococcus epidermidis EPI270. Nature of the experiment: MIC, standard agar-dilution assay. The experiment is classed as cell-based. The procedure: as §1
Experiment [16] relates to Escherichia coli N10. Nature of the experiment: MIC, standard agar-dilution assay. The format is cell-based. The protocol: as §1
Experiment [17] concerns Haemophilus influenzae 76. Description: MIC, standard agar-dilution assay. The experiment is classed as cell-based. The procedure: as §1
The test system of experiment [18] is Escherichia coli EC14. Description: MIC, standard agar-dilution assay. The format is cell-based. The protocol: as §1
Experiment [19] concerns Klebsiella pneumoniae X26. Description: MIC, standard agar-dilution assay. The format is cell-based. The procedure: as §1
Experiment [20] has as its system Klebsiella pneumoniae X68. Nature of the experiment: MIC, standard agar-dilution assay. The format is cell-based. The procedure:
as §1

Experiment [21] has as its system Staphylococcus aureus NRRL X1.1. Nature of the experiment: MIC, standard agar-dilution assay. The format is cell-based. The procedure:
as §1

The test system of experiment [22] is Staphylococcus aureus V41. Nature of the experiment: MIC, standard agar-dilution assay. The experiment is classed as cell-based. The procedure:
as §1

Experiment [23] relates to Staphylococcus aureus X400. Description: MIC, standard agar-dilution assay. The experiment is classed as cell-based. The protocol:
as §1

Molecules are shown by their SMILES. ≈ marks a conversion by molar mass, not a printed value.

As to `CCCCCCCCN[C@@]1(C)C[C@H](O[C@H]2[C@H](Oc3c4cc5cc3Oc3ccc(cc3Cl)[C@@H](O)[C@@H](NC(=O)[C@@H](CC(C)C)NC)C(=O)N[C@@H](CC(N)=O)C(=O)N[C@H]5C(=O)N[C@H]3C(=O)N[C@H](C(=O)N[C@H](C(=O)O)c5cc(O)cc(O)c5-c5cc3ccc5O)[C@H](O[C@H]3C[C@](C)(N)[C@@H](O)[C@H](C)O3)c3ccc(cc3)O4)O[C@H](CO)[C@@H](O)[C@@H]2O)O[C@@H](C)[C@@H]1O` [Compound 1], the MIC result was “.5 µg/mL” in [1]; “.5 µg/mL” in experiment [2]; 1 µg/mL (≈ 0.599 µM) in experiment [4]; 1 µg/mL (≈ 0.599 µM) in experiment [7]; 1 µg/mL (≈ 0.599 µM) in experiment [10]; “.25 µg/mL” in [11]. Moreover, the MIC in experiment [12] was > 128 µg/mL; in experiment [13], > 128 µg/mL; in [14], > 128 µg/mL; in experiment [15] it was 1 µg/mL (≈ 0.599 µM); in experiment [16], > 128 µg/mL; in experiment [17], > 128 µg/mL. The MIC in experiment [18] is > 128 µg/mL; in [19], > 128 µg/mL; in [20] it was > 128 µg/mL; in experiment [21], 1 µg/mL (≈ 0.599 µM); in experiment [22], 1 µg/mL (≈ 0.599 µM); in experiment [23], 1 µg/mL (≈ 0.599 µM). Moreover, the figures for the ED50 in experiment [3], in [6] and in [9] were 0.43 mg/kg/2, 3.35 mg/kg/2 and 0.43 mg/kg/2, respectively. In [5], the “Ratio (mean MIC vancomycin-resistant strains / mean MIC vancomycin-susceptible strains)” value came to 4.9. Further, the “Geometric Mean MIC, Vanco^r Strains” value in experiment [5] was 9.7 µg/mL. Besides, the “Geometric Mean MIC, Vanco^s Strains” value in [8] was 2.2 µg/mL.
As for `CN[C@H](CC(C)C)C(=O)N[C@H]1C(=O)N[C@@H](CC(N)=O)C(=O)N[C@H]2C(=O)N[C@H]3C(=O)N[C@H](C(=O)N[C@H](C(=O)O)c4cc(O)cc(O)c4-c4cc3ccc4O)[C@H](O[C@H]3C[C@](C)(N)[C@@H](O)[C@H](C)O3)c3ccc(c(Cl)c3)Oc3cc2cc(c3O[C@@H]2O[C@H](CO)[C@@H](O)[C@H](O)[C@H]2O[C@H]2C[C@](C)(NCCc3ccccc3)[C@@H](O)[C@H](C)O2)Oc2ccc(cc2Cl)[C@H]1O` [Compound 43], the MIC in experiment [1] is 1 µg/mL (≈ 0.589 µM); in experiment [2], “.125 µg/mL”; in experiment [4] it was “.5 µg/mL”; in [7], 1 µg/mL (≈ 0.589 µM); in [10], “.25 µg/mL”; in experiment [11], “.5 µg/mL”. Further, the MIC in experiment [12] is > 128 µg/mL; in [13], > 128 µg/mL; in [14], > 128 µg/mL; in experiment [15] it was 1 µg/mL (≈ 0.589 µM); in experiment [16] it was > 128 µg/mL; in experiment [17] it was > 128 µg/mL. Also, the MIC in experiment [18] is > 128 µg/mL; in experiment [19], > 128 µg/mL; in experiment [20], > 128 µg/mL; in experiment [21], “.25 µg/mL”; in experiment [22] it was “.5 µg/mL”; in experiment [23], 1 µg/mL (≈ 0.589 µM). Further, the ED50 in experiment [3] was determined as 0.38 mg/kg/2; in experiment [6], 0.125 mg/kg/2; in experiment [9], 0.11 mg/kg/2. Besides, the “Ratio (mean MIC vancomycin-resistant strains / mean MIC vancomycin-susceptible strains)” value in experiment [5] stood at 5.2. Further, the “Geometric Mean MIC, Vanco^r Strains” value in experiment [5] was found to be 4.0 µg/mL. The “Geometric Mean MIC, Vanco^s Strains” value in experiment [8] turned out to be 0.77 µg/mL.
As for `CNC(CC(C)C)C(=O)NC1C(=O)NC(CC(N)=O)C(=O)NC2C(=O)NC3C(=O)NC(C(=O)NC(C(=O)O)c4cc(O)cc(O)c4-c4cc3ccc4O)C(OC3CC(C)(NCc4ccccc4)C(O)C(C)O3)c3ccc(cc3)Oc3cc2cc(c3OC2OC(CO)C(O)C(O)C2O)Oc2ccc(cc2Cl)C1O` (stereo not drawn) [Compound 70], the MIC in experiment [1], in [2], in [4], in experiment [7], in experiment [10] and in [11] was 2 µg/mL (≈ 1.33 µM) each time. The MIC in [12] was > 128 µg/mL; in [13] it was > 128 µg/mL; in [14], > 128 µg/mL; in [15], “.5 µg/mL”; in experiment [16], > 128 µg/mL; in [17], > 128 µg/mL. Moreover, the MIC in experiment [18] was > 128 µg/mL; in [19], > 128 µg/mL; in [20] it was > 128 µg/mL; in experiment [21] it was 2 µg/mL (≈ 1.33 µM); in experiment [22] it was 2 µg/mL (≈ 1.33 µM); in experiment [23], 2 µg/mL (≈ 1.33 µM). In addition, the ED50 in [3] is recorded as 2.38 mg/kg/2; in [6] it was 4.10 mg/kg/2; in experiment [9] it was 3.76 mg/kg/2.
In the case of `CNC(CC(C)C)C(=O)NC1C(=O)NC(CC(N)=O)C(=O)NC2C(=O)NC3C(=O)NC(C(=O)NC(C(=O)O)c4cc(O)cc(O)c4-c4cc3ccc4O)C(OC3CC(C)(NCc4ccccc4)C(O)C(C)O3)c3ccc(cc3)Oc3cc2cc(c3O)Oc2ccc(cc2Cl)C1O` (stereo not drawn) [Compound 73], the MIC in experiment [1] is 1 µg/mL (≈ 0.745 µM); in experiment [2] it was 1 µg/mL (≈ 0.745 µM); in [4] it was 2 µg/mL (≈ 1.49 µM); in experiment [7], 1 µg/mL (≈ 0.745 µM); in experiment [10] it was 2 µg/mL (≈ 1.49 µM); in experiment [11], 1 µg/mL (≈ 0.745 µM). In addition, the MIC in [12] was > 128 µg/mL; in [13] it was > 128 µg/mL; in experiment [14], > 128 µg/mL; in [15], “.25 µg/mL”; in experiment [16] it was > 128 µg/mL; in experiment [17] it was > 64 µg/mL. Further, the MIC in experiment [18] is > 128 µg/mL; in experiment [19], > 128 µg/mL; in experiment [20], > 128 µg/mL; in [21] it was 1 µg/mL (≈ 0.745 µM); in [22], 1 µg/mL (≈ 0.745 µM); in experiment [23], 1 µg/mL (≈ 0.745 µM). The ED50 is reported as 7.30 mg/kg/2 in [3], > 8.0 mg/kg/2 in [6] and > 8.0 mg/kg/2 in [9].
For `CNC(CC(C)C)C(=O)NC1C(=O)NC(CC(N)=O)C(=O)NC2C(=O)NC3C(=O)NC(C(=O)NC(C(=O)O)c4cc(O)cc(O)c4-c4cc3ccc4O)C(OC3CC(C)(NCc4ccccc4)C(O)C(C)O3)c3ccc(c(Cl)c3)Oc3cc2cc(c3OC2OC(CO)C(O)C(O)C2O)Oc2ccc(cc2Cl)C1O` (stereo not drawn) [Compound 76], the MIC entry was “.25 µg/mL” in [1]; 1 µg/mL (≈ 0.65 µM) in [2]; 1 µg/mL (≈ 0.65 µM) in experiment [4]; 1 µg/mL (≈ 0.65 µM) in experiment [7]; “.5 µg/mL” in [10]; “.5 µg/mL” in [11]. The MIC is > 128 µg/mL in experiment [12]; > 128 µg/mL in [13]; > 128 µg/mL in experiment [14]; 2 µg/mL (≈ 1.3 µM) in experiment [15]; > 128 µg/mL in experiment [16]; > 128 µg/mL in experiment [17]. Moreover, the MIC is > 128 µg/mL in [18]; > 128 µg/mL in [19]; > 128 µg/mL in experiment [20]; “.25 µg/mL” in [21]; “.25 µg/mL” in experiment [22]; “.25 µg/mL” in experiment [23]. Besides, the figures for the ED50 in experiment [3], in experiment [6] and in experiment [9] were 0.62 mg/kg/2, 0.87 mg/kg/2 and 0.42 mg/kg/2, respectively.

Source of the values: patent publication US5591714A, “Derivatives of A82846” (priority 1994, dated 1997).
